Test results reported in US20040133938A1, “Use of lipoic acid in plant culture media” (priority 2002, published 2004).

Tested on: MicroTom cotyledon explants
Assay: MicroTom Agrobacterium transformation: shoot regeneration, transformation efficiency, escapes
Format: cell-based, Lycopersicon esculentum
Settings: for % of explants producing shoots (>1 cm in length): selection medium; for % of shoots that were escapes (did not root on selection medium): kanamycin selection
Method: This example describes the use of lipoic acid in an Agrobacterium-based tomato transformation process. MicroTom (a cultivar of tomato species: Lycopersicon esculentum) seeds from Tomato Growers (Ball Seed Co., West Chicago, Ill. USA) were surface-sterilized by first soaking for 10 min in sterile deionized water, removing the water, and then adding enough 70% ethanol to immerse the seeds for 1 min while stirring vigorously and then aspirating the ethanol. The seeds were rinsed 2× with sterile deionized water and then soaked in 25% Chlorox with 1-2 drops of Tween 20 for 10 min while stirring frequently. The seeds were rinsed 3× with sterile deionized water. The seeds were germinated in phytatrays containing Davis Germination medium (4.3 g/L MS salts, 2 ml/L Gamborg's B-5 500× salts, 20 g/L sucrose and 10 g/L agar) (approximately 120 seeds/container), and the phytatrays were wrapped with aluminum foil. The phytatray cultures were maintained at 28° C. under the dark for 5 days. After 5 days, the phytatray cultures were unwrapped and grown at 24° C. under a 16 h photoperiod for about 44 h.
Agrobacterium containing the desired transformation vector with a selectable marker (nptII for kanamycin selection as shown in FIG. 1) was streaked on a fresh LBssck plate (LB, 200 mL; spectinomycin (50 mg/mL stock), 200 μL; streptomycin (50 mg/mL stock), 200 μL; kanamycin (50 mg/mL stock), 200 μL; chloramphenicol (CAP, 25 mg/mL stock), 200 μL) from a frozen glycerol stock, and grown at about 28° C. for 3-4 days. One day before inoculation, a loopful of the bacterium cells from the freshly streaked plate was inoculated into 2 mL of LB+(LB, 200 mL; spectinomycin or streptomycin (50 mg/mL stock), 400 μL; kanamycin (50 mg/mL stock), 200 μL; chloramphenicol (CAP, 25 mg/mL stock), 200 μL) without acetosyringone, and grown at about 28° C. on a rotator at the speed between medium to high overnight. Then, 0.2 mL of the overnight bacterium culture was inoculated into 2 mL of LB+0.2 mM acetosyringone, and grown at about 28° C. on a rotator at the speed between medium to high for 4 hours.
Four hours after the sub-culture, the bacterium growth phase was measured using the spectrophotometer. The final O.D.660 of the bacterium culture was between about 0.9 and 1.4. The bacterium culture was diluted by adding the bacterium culture to TXD medium in a sterile tube based on the volume to get the working O.D.660=0.1.
Cotyledon explants were isolated from seedlings 7 days after sowing seeds on Davis Germination medium. Cotyledon explants were prepared by bathing them in 6 mL of TXD liquid medium (4.3 g/L MS salts, 2 mL/L Gamborg's B-5 500× salts, 4 mg/L pCPA (p-chlorophenoxyactic acid), 0.005 mg/L kinetin, and 30 g/L sucrose) to prevent desiccation and trimming them at both ends using a #15 feather blade. Immediately after the trimming, the cotyledon explants were gently placed on “feeder plates” containing UC2PC medium (2.2 g/L MS salts, 2.2 mL/L, Gamborg's B-5 500× salts, 0.2 mg/L 2,4-D, 4 mg/L pCPA, 0.1 mg/L kinetin, 30 g/L sucrose, 0.2 g/L potassium phosphate, 10 g/L agar, 8 mL/L acetosyringone (4.91 mg/mL), and 4 mL galacturonic acid (53.05 mg/mL)). The “feeder plates” are made by overlaying 2 mL of tobacco suspension cells and a sterile Whatman filter on the plates containing UC2PC medium. The cotyledon explants were gently poked with a sharp forceps (ASIM5311, Stainless French, made in Switzerland). Usually six to ten pokes were made per explant depending the size of cotyledons. Right after poking, the cotyledons were inoculated with Agrobacterium containing pMON15715 (FIG. 1) by adding 3 mL of the adjusted Agrobacterium solution on top of the cotyledons. The plates were incubated for 10 min at room temperature, and the Agrobacterium solution was aspirated with a sterile pipette. The cotyledons were then co-cultured for 2 days at 23-24° C. under a 16-h photoperiod. […]

SMILES: O=C(O)CCCCC1CCSS1 (stereo not drawn) [lipoic acid, 1,2-dithiolane-3-pentanoic acid]
- % of explants producing shoots (>1 cm in length) (5 μM lipoic acid, 45 explants): 68.9%
- % of resp. explant producing transgenic plants (5 μM lipoic acid, MicroTom): 78.6%
- % of transgenic plants/shoot (5 μM lipoic acid, MicroTom): 43.9%
- Efficiency (stable transformation efficiency, percentage of transgenic plants produced per explant) (5 μM lipoic acid, MicroTom): 155.1%
- No. of total shoots produced/explant (5 μM lipoic acid, MicroTom): 3.53
- No. of total shoots produced/resp. explant (5 μM lipoic acid, MicroTom): 4.93
- No. of transgenic plants produced/resp. explant (5 μM lipoic acid, MicroTom): 2.25
- TE (percentage of transgenic events produced per explant) (5 μM lipoic acid, MicroTom): 78.3%
- % of shoots that were escapes (did not root on selection medium) (5 μM lipoic acid): 54.6%
- % of explants producing shoots (>1 cm in length) (10 μM lipoic acid, 46 explants): 67.4%
- % of resp. explant producing transgenic plants (10 μM lipoic acid, MicroTom): 74.2%
- % of transgenic plants/shoot (10 μM lipoic acid, MicroTom): 42.9%
- Efficiency (stable transformation efficiency, percentage of transgenic plants produced per explant) (10 μM lipoic acid, MicroTom): 178.7%
- No. of total shoots produced/explant (10 μM lipoic acid, MicroTom): 4.17
- No. of total shoots produced/resp. explant (10 μM lipoic acid, MicroTom): 6.19
- No. of transgenic plants produced/resp. explant (10 μM lipoic acid, MicroTom): 2.65
- TE (percentage of transgenic events produced per explant) (10 μM lipoic acid, MicroTom): 94.1%
- % of shoots that were escapes (did not root on selection medium) (10 μM lipoic acid): 58.3%
- % of explants producing shoots (>1 cm in length) (50 μM lipoic acid, 49 explants): 61.2%
- % of resp. explant producing transgenic plants (50 μM lipoic acid, MicroTom): 67.9%
- % of transgenic plants/shoot (50 μM lipoic acid, MicroTom): 48.0%
- Efficiency (stable transformation efficiency, percentage of transgenic plants produced per explant) (50 μM lipoic acid, MicroTom): 144.1%
- No. of total shoots produced/explant (50 μM lipoic acid, MicroTom): 3.00
- No. of total shoots produced/resp. explant (50 μM lipoic acid, MicroTom): 4.83
- No. of transgenic plants produced/resp. explant (50 μM lipoic acid, MicroTom): 2.35
- TE (percentage of transgenic events produced per explant) (50 μM lipoic acid, MicroTom): 76.4%
- % of shoots that were escapes (did not root on selection medium) (50 μM lipoic acid): 55.4%
- % of explants producing shoots (>1 cm in length) (100 μM lipoic acid, 43 explants): 25.6%
- % of resp. explant producing transgenic plants (100 μM lipoic acid, MicroTom): 93.8%
- % of transgenic plants/shoot (100 μM lipoic acid, MicroTom): 50.6%
- Efficiency (stable transformation efficiency, percentage of transgenic plants produced per explant) (100 μM lipoic acid, MicroTom): 112.1%
- No. of total shoots produced/explant (100 μM lipoic acid, MicroTom): 2.21
- No. of total shoots produced/resp. explant (100 μM lipoic acid, MicroTom): 8.64
- No. of transgenic plants produced/resp. explant (100 μM lipoic acid, MicroTom): 4.38
- TE (percentage of transgenic events produced per explant) (100 μM lipoic acid, MicroTom): 49.7%
- % of shoots that were escapes (did not root on selection medium) (100 μM lipoic acid): 57.1%
- effect on total transgenic and non-transgenic shoot induction (lipoic acid from 5 μM to 50 μM): no inhibition effect
- increase of the stable transformation efficiency (summary, MicroTom, from 40%): 6.5 fold
- stable transformation efficiency (summary, MicroTom, with lipoic acid): up to 260%
